{"source": "patent US7132427B2", "about": "“Quinazolines and uses thereof” (Ariad Pharmaceuticals, Inc., priority 2001, dated 2006)", "assay": "Hydroxyapatite assay (hydroxyapatite adsorption chromatography, bone-targeting potential)", "type": "physicochemical", "details": "K=(retention time-void time)/void, corrected using two reference compounds; TSK-Gel HA 1000 HPLC column; linear gradient 10 mM to 500 mM sodium phosphate, 0.15 N NaCl, pH 6.8", "procedure": "Hydroxyapatite is the principal mineral component of bone. Hydroxyapatite adsorption chromatography is used as an assay to evaluate the bone-targeting potential of both individual bone-targeting moieties (“monomers”) and of pharmaceuticals incorporating bone-targeting groups.\nMethod: The rentention time of a test compound is measured using a linear gradient from 10 mM sodium phosphate, 0.15 N NaCl, pH=6.8 to 500 mM sodium phosphate, 0.15 N NaCl, […] on a TSK-Gel HA 1000 high pressure liquid chromatography column (7.5 mm×75 mm). The rentention time of the compound is expressed in terms of K=(retention time-void time)/void. This K value is corrected using two reference compounds to correct from inter-column and inter-system variation to obtain a K′ value.\nReference Compounds: K′ values were determined for known bone targeted compounds, the bisphosphonate, alendronate and tetracycline.", "data": [{"smiles": "NCCCC(O)(P(=O)(O)O)P(=O)(O)O", "note": "[Alendronate, alendronate]", "values": [{"measurement": "K′ value", "value": 3.7}]}]}
